# Test results from US20250122266A1, “SMART SINGLE-DOMAIN INTRABODIES WITH PRECISION SWITCHES FOR BIOMEDICAL APPLICATIONS” (THE TEXAS A&M UNIVERSITY SYSTEM, priority 2020, published 2025).
# Test system: Mito-mCh
# Experiment: mitochondria (Mito) translocation assay of rapabody and caffebody
# Type: cell-based
# Details: HeLa cells, GFP-caffebody and Mito-mCh
# Procedure: For ligand-controllable nanobodies rapabody and caffebody, similar imaging and data analysis procedures were used. Transfected HeLa cells were incubated with normal growth media or media supplemented with different concentrations of ligands or diluted beverages as indicated in the figures. Coffees and teas were purchased from Starbucks, while other drinks were purchased from a grocery store.
# The instant example evaluates whether the installation of genetically-encoded chemical switches would likewise enable chemogenetic control of nanobodies. The LOV2 domain in the S3 loop of sunbody was substituted with two ligand-controllable precision switches, UniRapR and a dimeric concatemer of acVHH (2×acVHH; FIG. 23A). UniRapR, engineered from the FKBP-FRB based chemically-inducible dimerization system, has been used to enable rapamycin-induced allosteric control of a wide range of host proteins, including kinases and GTPases. Further, acVHH is known to induce self-dimerization upon addition of caffeine, and thus it was hypothesized to elicit conformational changes when inserted into a host protein as a dimeric concatemer. These intrabody compositions were named “rapabodies” and “caffebodies”, respectively, to reflect the compounds used for chemogenetic manipulation. […]
smiles,measurement,value
Cn1c(=O)c2[nH]cnc2n(C)c1=O [theophylline],activation of caffebody by caffeine analog or beverages,could similarly activate caffebody
